# Assay results reported in patent publication US12202835B2, “Substituted aromatic ring-linked dioxinoquinazolines and dioxinoquinolines as kinase inhibitors” (BEIJING SCITECH-MQ PHARMACEUTICALS LIMITED, priority 2018, dated 2025).
# Legend:
# TRKA kinase = TRKA kinase (Homo sapiens (Human), UniProt P04629); assay: Assay of small molecular compounds for inhibiting the activity of TRKA kinase (LANCE TR-FRET); type: biochemical
# Method in brief: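 LANCE TR-FRET with ULight-TK peptide; compounds pre-incubated 5 min with TRKA (2× solution 2 nM), then substrate/ATP added (4× mix: 400 nM peptide, 40 μM ATP). Reaction 60 min at room temperature in dark, 1% DMSO final; stopped, detection developed 60 min, signal read.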
# VEGFR-2 kinase = VEGFR-2 kinase (Homo sapiens (Human), UniProt P35968); assay: Assay of small molecular compounds for inhibiting the activity of VEGFR-2 kinase (LANCE TR-FRET); type: biochemical; settings: read-out: VEGFR2 IC50
# Sequence of VEGFR-2 kinase (P35968 20-1356): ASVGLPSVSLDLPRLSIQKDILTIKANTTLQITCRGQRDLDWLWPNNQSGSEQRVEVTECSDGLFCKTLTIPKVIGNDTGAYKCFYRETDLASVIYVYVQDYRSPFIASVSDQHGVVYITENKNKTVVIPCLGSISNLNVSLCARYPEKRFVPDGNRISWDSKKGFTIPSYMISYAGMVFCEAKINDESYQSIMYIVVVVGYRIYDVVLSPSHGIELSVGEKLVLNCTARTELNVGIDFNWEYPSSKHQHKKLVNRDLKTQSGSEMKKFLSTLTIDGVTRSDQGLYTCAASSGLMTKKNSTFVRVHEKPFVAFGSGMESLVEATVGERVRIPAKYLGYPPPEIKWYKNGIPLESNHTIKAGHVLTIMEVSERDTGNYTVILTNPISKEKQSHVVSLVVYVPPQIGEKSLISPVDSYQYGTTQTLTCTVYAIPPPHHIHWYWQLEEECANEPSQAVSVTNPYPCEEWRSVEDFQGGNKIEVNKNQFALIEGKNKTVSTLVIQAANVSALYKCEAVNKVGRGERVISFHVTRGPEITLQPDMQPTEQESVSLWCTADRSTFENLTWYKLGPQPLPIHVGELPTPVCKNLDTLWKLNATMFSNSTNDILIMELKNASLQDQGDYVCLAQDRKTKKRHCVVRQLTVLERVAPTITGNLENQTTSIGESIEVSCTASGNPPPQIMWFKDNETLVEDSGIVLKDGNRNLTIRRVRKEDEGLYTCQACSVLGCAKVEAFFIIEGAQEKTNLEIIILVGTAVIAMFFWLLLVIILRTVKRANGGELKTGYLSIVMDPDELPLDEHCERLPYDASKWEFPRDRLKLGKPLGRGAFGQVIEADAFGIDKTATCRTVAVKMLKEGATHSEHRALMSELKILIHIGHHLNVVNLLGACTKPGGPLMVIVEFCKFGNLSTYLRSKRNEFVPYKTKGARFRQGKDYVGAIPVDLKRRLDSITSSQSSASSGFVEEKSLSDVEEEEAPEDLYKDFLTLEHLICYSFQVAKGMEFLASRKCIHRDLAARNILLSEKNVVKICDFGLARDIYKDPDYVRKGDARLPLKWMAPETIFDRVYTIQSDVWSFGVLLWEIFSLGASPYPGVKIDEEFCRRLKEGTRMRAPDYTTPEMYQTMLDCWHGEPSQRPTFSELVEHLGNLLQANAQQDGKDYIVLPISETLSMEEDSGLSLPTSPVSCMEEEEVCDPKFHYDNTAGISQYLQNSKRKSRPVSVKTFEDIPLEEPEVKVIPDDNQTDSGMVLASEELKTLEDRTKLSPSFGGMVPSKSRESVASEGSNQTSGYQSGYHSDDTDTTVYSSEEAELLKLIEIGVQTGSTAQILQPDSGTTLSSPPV
# Method in brief: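 LANCE TR-FRET with human VEGFR-2 (2× stock 0.5 nM) preincubated 30 min with compound (final 2500 to 0.042 nM, 11-point 3-fold), then ULight-JAK-1 (Tyr1023) peptide/ATP added (4× stocks 200 nM/40 μM). Reaction 60 min room temperature, 4% DMSO; IC50 from inhibition-rate curve.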
# Ba/F3-AXL cells = assay: Assay for inhibiting the proliferation of Ba/F3-AXL cells (CCK-8); type: cell-based; settings: 72 hours of incubation, medium with 100 ng/mL hGas6, CCK-8
# Protocol: The values were then imported into Graphpad Prism 5 software for curve fitting, and IC50 was calculated.
# Ba/F3 LMNA-NTRK1 cells = assay: Assay for inhibiting the proliferation of Ba/F3 LMNA-NTRK1 cells (CCK-8); type: cell-based; settings: Mus musculus, BaF3
# Method in brief: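 Cells were seeded and cultured overnight, then treated with graded compound concentrations (final DMSO 0.25%) for 72 h. CCK-8 was added for 1–2 h at 37 °C and OD450 read. Survival was normalised to untreated and cell-free blank wells, and IC50 was fitted.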
# Sequence of TRKA kinase (P04629 33-796): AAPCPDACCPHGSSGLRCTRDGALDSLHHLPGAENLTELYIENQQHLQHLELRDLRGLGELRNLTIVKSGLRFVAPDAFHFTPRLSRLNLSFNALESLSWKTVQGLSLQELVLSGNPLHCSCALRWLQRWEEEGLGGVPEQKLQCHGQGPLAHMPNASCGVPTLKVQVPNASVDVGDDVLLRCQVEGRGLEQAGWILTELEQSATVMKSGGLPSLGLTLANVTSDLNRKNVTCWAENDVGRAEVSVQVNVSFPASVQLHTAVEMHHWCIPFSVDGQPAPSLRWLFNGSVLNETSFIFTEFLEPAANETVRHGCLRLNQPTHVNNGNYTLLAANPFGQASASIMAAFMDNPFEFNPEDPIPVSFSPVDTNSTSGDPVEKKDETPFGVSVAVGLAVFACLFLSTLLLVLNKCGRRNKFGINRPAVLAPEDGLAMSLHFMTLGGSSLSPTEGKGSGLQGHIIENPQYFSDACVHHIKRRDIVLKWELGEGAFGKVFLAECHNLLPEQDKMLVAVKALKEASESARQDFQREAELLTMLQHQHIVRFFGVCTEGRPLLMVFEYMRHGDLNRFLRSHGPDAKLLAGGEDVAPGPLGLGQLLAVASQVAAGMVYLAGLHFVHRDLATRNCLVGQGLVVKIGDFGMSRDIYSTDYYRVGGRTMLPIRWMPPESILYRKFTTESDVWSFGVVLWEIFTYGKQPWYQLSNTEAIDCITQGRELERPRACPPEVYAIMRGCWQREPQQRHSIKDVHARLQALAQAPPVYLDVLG
IC50 (TRKA kinase) [nM],IC50 (VEGFR-2 kinase) [nM],IC50 (Ba/F3-AXL cells) [nM],IC50 (Ba/F3 LMNA-NTRK1 cells) [nM],SMILES
< 50,50 to 500,< 50,< 50,"CCn1cc(C(=O)Nc2ccc(Oc3ccnc4cc(OC)c5c(c34)OCCO5)c(F)c2)c(=O)n(-c2ccc(F)cc2)c1=O [Example 37, N-(3-fluoro-4-((5-methoxy-2,3-dihydro-[1,4]dioxino[2,3-f]quinolin-10-yl)oxy)phenyl)-3-(4-fluorophenyl)-1-ethyl-2,4-dioxo-1,2,3,4-tetrahydropyrimidine-5-carboxamide]"
< 50,50 to 500,< 50,< 50,"COCCOc1cc2nccc(Oc3ccc(NC(=O)c4cn(C)c(=O)n(-c5ccc(F)cc5)c4=O)cc3F)c2c2c1OCCO2 [Example 42, N-(3-fluoro-4-((5-(2-methoxyethoxy)-2,3-dihydro-[1,4]dioxino[2,3-f]quinolin-10-yl)oxy)phenyl)-3-(4-fluorophenyl)-1-methyl-2,4-dioxo-1,2,3,4-tetrahydropyrimidine-5-carboxamide]"
< 50,50 to 500,< 50,< 50,"CCOc1ccn(-c2ccc(F)cc2)c(=O)c1C(=O)Nc1ccc(Oc2ccnc3cc(OCCCC#N)c4c(c23)OCCO4)cc1Cl [Example 134, N-(2-chloro-4-((5-(3-cyanopropoxy)-2,3-dihydro-[1,4]dioxino[2,3-f]quinolin-10-yl)oxy)phenyl)-1-(4-fluorophenyl)-4-ethoxy-2-oxo-1,2-dihydropyridine-3-carboxamide]"
< 50,500 to 5000,< 50,< 50,"CC(C)n1cc(C(=O)Nc2ccc(Oc3ccnc4cc(OCC(C)(C)O)c5c(c34)OCCO5)c(F)c2)c(=O)n(-c2ccc(F)cc2)c1=O [Example 122, N-(3-fluoro-4-((5-(2-hydroxy-2-methylpropoxy)-2,3-dihydro-[1,4]dioxino[2,3-f]quinolin-10-yl)oxy)phenyl)-3-(4-fluorophenyl)-1-isopropyl-2,4-dioxo-1,2,3,4-tetrahydropyrimidine-5-carboxamide]"
< 50,50 to 500,< 50,< 50,"CCn1cc(C(=O)Nc2ccc(Oc3ccnc4cc(OCCCN5CCCCC5)c5c(c34)OCCO5)c(F)c2)c(=O)n(-c2ccc(F)cc2)c1=O [Example 41, N-(3-fluoro-4-((5-(3-(piperidin-1-yl)propoxy)-2,3-dihydro-[1,4]dioxino[2,3-f]quinolin-10-yl)oxy)phenyl)-3-(4-fluorophenyl)-1-ethyl-2,4-dioxo-1,2,3,4-tetrahydropyrimidine-5-carboxamide]"
< 50,≤ 50,< 50,< 50,"COc1cc2nccc(Oc3ccc(NC(=O)c4cccn(-c5ccc(F)cc5)c4=O)cc3F)c2c2c1OCCO2 [Example 17, N-(3-fluoro-4-((5-methoxy-2,3-dihydro-[1,4]dioxino[2,3-f]quinolin-10-yl)oxy)phenyl)-1-(4-fluorophenyl)-2-oxo-1,2-dihydropyridine-3-carboxamide]"

SMILES,IC50 (TRKA kinase) [nM],IC50 (VEGFR-2 kinase) [nM],IC50 (Ba/F3-AXL cells) [nM],IC50 (Ba/F3 LMNA-NTRK1 cells) [nM]
"CCOc1ccn(-c2ccc(F)cc2)c(=O)c1C(=O)Nc1ccc(Oc2ccnc3cc(OCC(C)(C)O)c4c(c23)OCCO4)cc1Cl [Example 142, N-(2-chloro-4-((5-(2-hydroxy-2-methylpropoxy)-2,3-dihydro-[1,4]dioxino[2,3-f]quinolin-10-yl)oxy)phenyl)-1-(4-fluorophenyl)-4-ethoxy-2-oxo-1,2-dihydropyridine-3-carboxamide]",< 50,50 to 500,< 50,< 50
